# From patent US9017645B2, “Homoglutamic acid derivatives” (Piramal Imaging SA, priority 2009, dated 2015)
# System: H460 tumor bearing mice
# Test: Biodistribution in H460 tumor bearing mice
# Assay type: in vivo, NMRI (nu/nu) mice
# Conditions: for summary: urine: in %; for summary: carcass / summary: organs / summary: recovery: in % (unit assumed)
# Procedure: Biodistribution in H460 tumor bearing mice. To test the pharmacokinetic properties of (2S)-2-amino-5-[3-[^18F]fluoropropyl]hexanedioic acid, the fluorinated compound was examined in H460 tumor bearing mice. NMRI (nu/nu) mice were inoculated with H460 tumor cells 8 to 10 days before the biodistribution studies. 185 kBq of activity of the fluorinated compound was injected into each mouse. n=3 mice were used at every time point. After injection of the F18-labeled compound, mice were sacrificed at the timepoints indicated. All organs were removed and radioactivity was determined using a γ-counter. […] Clearance of radioactivity takes place via the kidneys, with 67.9% of activity being excreted at 1 h p.i.
# [1] = 1 h p.i., H460 tumor bearing mice
structure (smiles),measurement,setting,value
N[C@@H](CCC(CCC[18F])C(=O)O)C(=O)O (stereo partly drawn) [(2S)-2-amino-5-[3-[^18F]fluoropropyl]hexanedioic acid],activity excreted via the kidneys,[1],67.9%
same,uptake in the tumor,[1],10.29 % injected dose per gram of tumor
same,retention of activity in the tumor,"4 h p.i., H460 tumor bearing mice",5.85 % injected dose per gram of tumor
same,tumor to blood ratio,H460 tumor bearing mice,34.7
same,tumor to muscle ratio,H460 tumor bearing mice,62.6
same,Tumor/Tissue bone,timepoint 0.25 h,18.92
same,Tumor/Tissue brain,timepoint 0.25 h,58.25
same,Tumor/Tissue heart,timepoint 0.25 h,17.61
same,Tumor/Tissue kidney,timepoint 0.25 h,0.60
same,Tumor/Tissue muscle,timepoint 0.25 h,28.44
same,Tumor/Tissue skin,timepoint 0.25 h,3.82
same,biodistribution adrenals,timepoint 0.25 h,1.18 % Dosis/g
same,biodistribution blood,timepoint 0.25 h,1.36 % Dosis/g
same,biodistribution bone,timepoint 0.25 h,0.57 % Dosis/g
same,biodistribution brain,timepoint 0.25 h,0.18 % Dosis/g
same,biodistribution fat,timepoint 0.25 h,0.25 % Dosis/g
same,biodistribution gallbladder,timepoint 0.25 h,1.08 % Dosis/g
same,biodistribution heart,timepoint 0.25 h,0.60 % Dosis/g
same,biodistribution intestine,timepoint 0.25 h,2.34 % Dosis/g
same,biodistribution kidney,timepoint 0.25 h,17.49 % Dosis/g
same,biodistribution lung,timepoint 0.25 h,3.22 % Dosis/g
same,biodistribution muscle,timepoint 0.25 h,0.37 % Dosis/g
same,biodistribution ovaries,timepoint 0.25 h,4.04 % Dosis/g
same,biodistribution pancreas,timepoint 0.25 h,26.85 % Dosis/g
same,biodistribution skin,timepoint 0.25 h,2.82 % Dosis/g
same,biodistribution spleen,timepoint 0.25 h,5.15 % Dosis/g
same,biodistribution stomach,timepoint 0.25 h,10.27 % Dosis/g
same,biodistribution tail,timepoint 0.25 h,8.12 % Dosis/g
same,biodistribution thyroid,timepoint 0.25 h,2.05 % Dosis/g
same,biodistribution tumor,timepoint 0.25 h,10.58 % Dosis/g
same,biodistribution uterus,timepoint 0.25 h,4.37 % Dosis/g
same,summary: urine,timepoint 0.25 h,30.17
same,summary: carcass,timepoint 0.25 h,18.07
same,summary: organs,timepoint 0.25 h,39.99
same,summary: recovery,timepoint 0.25 h,88.24
same,Tumor/Tissue bone,timepoint 0.5 h,15.47
same,Tumor/Tissue brain,timepoint 0.5 h,69.00
same,Tumor/Tissue heart,timepoint 0.5 h,34.35
same,Tumor/Tissue kidney,timepoint 0.5 h,1.43
same,Tumor/Tissue muscle,timepoint 0.5 h,54.98
same,Tumor/Tissue skin,timepoint 0.5 h,3.20
same,biodistribution adrenals,timepoint 0.5 h,0.67 % Dosis/g
same,biodistribution blood,timepoint 0.5 h,0.45 % Dosis/g
same,biodistribution bone,timepoint 0.5 h,0.53 % Dosis/g
same,biodistribution brain,timepoint 0.5 h,0.12 % Dosis/g
same,biodistribution fat,timepoint 0.5 h,0.18 % Dosis/g
same,biodistribution gallbladder,timepoint 0.5 h,0.47 % Dosis/g
same,biodistribution heart,timepoint 0.5 h,0.24 % Dosis/g
same,biodistribution intestine,timepoint 0.5 h,1.96 % Dosis/g
same,biodistribution kidney,timepoint 0.5 h,5.64 % Dosis/g
same,biodistribution lung,timepoint 0.5 h,1.62 % Dosis/g
same,biodistribution muscle,timepoint 0.5 h,0.15 % Dosis/g
same,biodistribution ovaries,timepoint 0.5 h,6.23 % Dosis/g
same,biodistribution pancreas,timepoint 0.5 h,21.26 % Dosis/g
same,biodistribution skin,timepoint 0.5 h,2.51 % Dosis/g
same,biodistribution spleen,timepoint 0.5 h,4.37 % Dosis/g
same,biodistribution stomach,timepoint 0.5 h,7.82 % Dosis/g
same,biodistribution tail,timepoint 0.5 h,5.67 % Dosis/g
same,biodistribution thyroid,timepoint 0.5 h,1.58 % Dosis/g
same,biodistribution tumor,timepoint 0.5 h,8.17 % Dosis/g
same,biodistribution uterus,timepoint 0.5 h,2.63 % Dosis/g
same,summary: faeces,timepoint 0.5 h,0%
same,summary: urine,timepoint 0.5 h,48.69
same,summary: carcass,timepoint 0.5 h,10.51
same,summary: organs,timepoint 0.5 h,32.54
same,summary: recovery,timepoint 0.5 h,91.75
same,Tumor/Tissue bone,timepoint 1.0 h,22.16
same,Tumor/Tissue brain,timepoint 1.0 h,93.25
same,Tumor/Tissue heart,timepoint 1.0 h,57.45
same,Tumor/Tissue kidney,timepoint 1.0 h,3.31
same,Tumor/Tissue muscle,timepoint 1.0 h,62.55
same,Tumor/Tissue skin,timepoint 1.0 h,4.24
same,biodistribution adrenals,timepoint 1.0 h,0.61 % Dosis/g
same,biodistribution blood,timepoint 1.0 h,0.30 % Dosis/g
same,biodistribution bone,timepoint 1.0 h,0.46 % Dosis/g
same,biodistribution brain,timepoint 1.0 h,0.11 % Dosis/g
same,biodistribution fat,timepoint 1.0 h,0.14 % Dosis/g
same,biodistribution gallbladder,timepoint 1.0 h,0.57 % Dosis/g
same,biodistribution heart,timepoint 1.0 h,0.18 % Dosis/g
same,biodistribution intestine,timepoint 1.0 h,1.77 % Dosis/g
same,biodistribution kidney,timepoint 1.0 h,3.10 % Dosis/g
same,biodistribution lung,timepoint 1.0 h,1.43 % Dosis/g
same,biodistribution muscle,timepoint 1.0 h,0.16 % Dosis/g
same,biodistribution ovaries,timepoint 1.0 h,1.86 % Dosis/g
same,biodistribution pancreas,timepoint 1.0 h,16.68 % Dosis/g
same,biodistribution skin,timepoint 1.0 h,2.43 % Dosis/g
same,biodistribution spleen,timepoint 1.0 h,2.87 % Dosis/g
same,biodistribution stomach,timepoint 1.0 h,4.47 % Dosis/g
same,biodistribution tail,timepoint 1.0 h,2.33 % Dosis/g
same,biodistribution thyroid,timepoint 1.0 h,1.57 % Dosis/g
same,biodistribution tumor,timepoint 1.0 h,10.29 % Dosis/g
same,biodistribution uterus,timepoint 1.0 h,2.45 % Dosis/g
same,summary: faeces,timepoint 1.0 h,0%
same,summary: urine,timepoint 1.0 h,67.90
same,summary: carcass,timepoint 1.0 h,9.28
same,summary: organs,timepoint 1.0 h,25.76
same,summary: recovery,timepoint 1.0 h,102.93
same,Tumor/Tissue bone,timepoint 2.0 h,18.25
same,Tumor/Tissue brain,timepoint 2.0 h,87.08
same,Tumor/Tissue heart,timepoint 2.0 h,54.23
same,Tumor/Tissue kidney,timepoint 2.0 h,6.15
same,Tumor/Tissue muscle,timepoint 2.0 h,62.45
same,Tumor/Tissue skin,timepoint 2.0 h,3.59
same,biodistribution adrenals,timepoint 2.0 h,0.52 % Dosis/g
same,biodistribution blood,timepoint 2.0 h,0.15 % Dosis/g
same,biodistribution bone,timepoint 2.0 h,0.40 % Dosis/g
same,biodistribution brain,timepoint 2.0 h,0.08 % Dosis/g
same,biodistribution fat,timepoint 2.0 h,0.07 % Dosis/g
same,biodistribution gallbladder,timepoint 2.0 h,0.48 % Dosis/g
same,biodistribution heart,timepoint 2.0 h,0.13 % Dosis/g
same,biodistribution intestine,timepoint 2.0 h,1.23 % Dosis/g
same,biodistribution kidney,timepoint 2.0 h,1.17 % Dosis/g
same,biodistribution lung,timepoint 2.0 h,1.04 % Dosis/g
same,biodistribution muscle,timepoint 2.0 h,0.11 % Dosis/g
same,biodistribution ovaries,timepoint 2.0 h,1.58 % Dosis/g
same,biodistribution pancreas,timepoint 2.0 h,7.70 % Dosis/g
same,biodistribution skin,timepoint 2.0 h,1.97 % Dosis/g
same,biodistribution stomach,timepoint 2.0 h,3.35 % Dosis/g
same,biodistribution tail,timepoint 2.0 h,1.64 % Dosis/g
same,biodistribution thyroid,timepoint 2.0 h,1.37 % Dosis/g
same,biodistribution tumor,timepoint 2.0 h,6.72 % Dosis/g
same,biodistribution uterus,timepoint 2.0 h,2.72 % Dosis/g
same,summary: faeces,timepoint 2.0 h,0.01%
same,summary: urine,timepoint 2.0 h,68.67
same,summary: carcass,timepoint 2.0 h,9.12
same,summary: organs,timepoint 2.0 h,17.68
same,summary: recovery,timepoint 2.0 h,94.72
same,Tumor/Tissue bone,timepoint 4.0 h,15.04
same,Tumor/Tissue brain,timepoint 4.0 h,83.21
same,Tumor/Tissue heart,timepoint 4.0 h,68.93
same,Tumor/Tissue kidney,timepoint 4.0 h,8.78
same,Tumor/Tissue muscle,timepoint 4.0 h,64.19
same,Tumor/Tissue skin,timepoint 4.0 h,5.40
same,biodistribution adrenals,timepoint 4.0 h,0.61 % Dosis/g
same,biodistribution blood,timepoint 4.0 h,0.10 % Dosis/g
same,biodistribution bone,timepoint 4.0 h,0.39 % Dosis/g
same,biodistribution brain,timepoint 4.0 h,0.08 % Dosis/g
same,biodistribution fat,timepoint 4.0 h,0.06 % Dosis/g
same,biodistribution gallbladder,timepoint 4.0 h,0.70 % Dosis/g
same,biodistribution heart,timepoint 4.0 h,0.08 % Dosis/g
same,biodistribution intestine,timepoint 4.0 h,0.97 % Dosis/g
same,biodistribution kidney,timepoint 4.0 h,0.72 % Dosis/g
same,biodistribution lung,timepoint 4.0 h,0.81 % Dosis/g
same,biodistribution muscle,timepoint 4.0 h,0.09 % Dosis/g
same,biodistribution ovaries,timepoint 4.0 h,2.18 % Dosis/g
same,biodistribution pancreas,timepoint 4.0 h,4.51 % Dosis/g
same,biodistribution skin,timepoint 4.0 h,1.31 % Dosis/g
same,biodistribution stomach,timepoint 4.0 h,1.27 % Dosis/g
same,biodistribution tail,timepoint 4.0 h,3.43 % Dosis/g
same,biodistribution thyroid,timepoint 4.0 h,0.98 % Dosis/g
same,biodistribution tumor,timepoint 4.0 h,5.85 % Dosis/g
same,biodistribution uterus,timepoint 4.0 h,1.41 % Dosis/g
same,summary: faeces,timepoint 4.0 h,2.1%
same,summary: urine,timepoint 4.0 h,77.27
same,summary: carcass,timepoint 4.0 h,4.03
same,summary: organs,timepoint 4.0 h,12.00
same,summary: recovery,timepoint 4.0 h,94.87
